Test results: patent US11673866B2, “Estrogen receptor beta ligands for the prevention and treatment of multiple sclerosis (MS) and other demyelinating, inflammatory and neurodegenerative diseases” (The Board of Trustees of the University of Illinois, priority 2018, dated 2023)
Entries after “also recorded” stand apart in the source; their conditions may differ.

What was measured:
primary OPCs/OLs = assay: Primary OPC/OL differentiation and survival (O4, MOG, DAPI staining); type: cell-based, mouse; settings: for number of MOG+ OLs: vs vehicle-treated cells, FIG. 12B
Description: FIG. 12A is representative images of primary OPCs/OLs from wells containing differentiating media in the presence of different analogues. OLs were immunostained with an antigen on the surface of oligodendrocyte progenitors, O4, a marker of mature oligodendrocytes, myelin oligodendrocyte glycoprotein, MOG and co-stained with nuclear stain DAPI.
FIG. 12B and FIG. 12C show quantification of the effects of treatment on the number of MOG+ OLs and the number of total cells (DAPI), respectively. […] There were 3 wells/treatment group. n=3 independent experiments were performed. One-Way ANOVA with Dunnett's multiple comparisons test.
The effect on cell differentiation and survival of estrogen receptor § (ERP) ligand IndCl and analogs were investigated. Some estrogen receptor § (ERP) ligands increase primary mouse oligodendrocyte differentiation (FIGS. 12A-12C).

ERβ = ERβ (Homo sapiens, UniProt Q92731); assay: Relative binding affinity (RBA) to estrogen receptor beta, radiometric measurement; settings: for β/α Ratio: ratio of RBA ERβ to RBA ERα; for RBA ERβ: relative value to 100% for E2 by radiometric measurement
ERβ, sequence (Q92731 whole entry, species assumed): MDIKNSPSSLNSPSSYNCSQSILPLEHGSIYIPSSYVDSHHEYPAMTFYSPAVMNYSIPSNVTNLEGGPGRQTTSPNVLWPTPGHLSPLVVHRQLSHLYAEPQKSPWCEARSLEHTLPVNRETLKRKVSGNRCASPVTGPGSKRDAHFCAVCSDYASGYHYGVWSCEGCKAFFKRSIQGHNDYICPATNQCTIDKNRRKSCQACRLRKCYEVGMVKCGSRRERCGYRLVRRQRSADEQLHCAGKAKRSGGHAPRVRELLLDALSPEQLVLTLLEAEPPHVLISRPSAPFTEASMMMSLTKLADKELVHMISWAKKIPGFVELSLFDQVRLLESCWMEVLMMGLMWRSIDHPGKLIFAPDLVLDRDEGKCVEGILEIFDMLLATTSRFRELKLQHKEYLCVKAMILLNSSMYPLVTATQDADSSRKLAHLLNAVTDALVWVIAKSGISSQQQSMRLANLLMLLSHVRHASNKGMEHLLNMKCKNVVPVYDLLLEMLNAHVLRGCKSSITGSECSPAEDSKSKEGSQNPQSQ

ERα = target: T1, ERα (Homo sapiens, UniProt P03372); assay: Relative binding affinity (RBA) to estrogen receptor alpha, radiometric measurement; settings: relative value to 100% for E2 by radiometric measurement
T1 sequence (P03372 1-595): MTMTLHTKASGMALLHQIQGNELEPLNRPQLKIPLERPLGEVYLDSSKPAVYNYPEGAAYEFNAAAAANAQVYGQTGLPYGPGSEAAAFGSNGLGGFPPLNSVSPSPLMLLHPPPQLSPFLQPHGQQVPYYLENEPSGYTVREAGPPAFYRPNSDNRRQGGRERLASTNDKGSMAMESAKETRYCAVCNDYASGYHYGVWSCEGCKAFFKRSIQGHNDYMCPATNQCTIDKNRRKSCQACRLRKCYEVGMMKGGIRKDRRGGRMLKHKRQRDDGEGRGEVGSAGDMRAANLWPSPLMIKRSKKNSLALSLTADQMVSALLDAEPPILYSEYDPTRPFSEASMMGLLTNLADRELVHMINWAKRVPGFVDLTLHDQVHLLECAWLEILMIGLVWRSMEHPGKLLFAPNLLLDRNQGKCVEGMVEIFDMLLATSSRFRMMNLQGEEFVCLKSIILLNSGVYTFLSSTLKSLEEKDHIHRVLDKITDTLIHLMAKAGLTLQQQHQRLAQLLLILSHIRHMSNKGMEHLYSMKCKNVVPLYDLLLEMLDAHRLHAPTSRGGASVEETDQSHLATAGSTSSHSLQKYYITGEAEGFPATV

[1] = system: primary oligodendrocyte and oligodendrocyte precursor cells (OL/OPCs); assay: Primary OPC culture differentiation (MBP immunostaining, DAPI); type: cell-based, mouse; design: key to %MBP+/DAPI: *: The level of production of myelin basic protein (MBP); ---: reduction of MBP; settings: for %MBP+/DAPI: level of production of myelin basic protein in primary OPC/OL cultures; for MBP+/DAPI ratio (OPC differentiation): FIG. 10B
Experimental: Primary OPC Cultures: Primary OPCs, isolated from postnatal day P1 C57BL/6 male and female mouse cortices as described previously, were treated with 10 nM ligands in differentiating medium for 3 days (Tiwari-Woodruff et al., 2001; Tiwari-Woodruff et al., 2006). Primary OPC were cultured into 8-well chamber slides (three wells per condition, 2.5×10^5 cells/well) for three days to attach and […] in differentiating media (consisting of DMEM-F12 with triiodothyronine- and thyroxine-containing Sato as well as penicillin, streptomycin, insulin, N-acetyl-L-cysteine, forskolin, ciliary neurotrophic factor, neurotrophin-3, and platelet-derived growth factor receptor α (Tiwari-Woodruff et al., 2001)). A positive control (IndCl), a negative control (Vehicle consisting of the media+EtOH mixture used to dissolve IndCl), and a normal control (differentiating media alone) were used for comparison. At the end of the treatment period, cells were fixed, stained by immunocytochemistry (primary antibody polyclonal chicken myelin basic protein (MBP, Millipore AB9348), shown in green and co-stained with nuclear stain—DAPI shown in blue), and imaged with an Olympus BX61 confocal microscope (Olympus America Inc., Center Valley, Pa.) at 10× magnification (3 images per well). Cells were counted using the ImageJ multipoint tool, and counts were then divided by the image area (mm^2). Average cell density for each condition was then divided by the normal condition cell density. Analysis of OL differentiation consisted of counting the number of MBP+ cells and process extensions that were longer than the respective cell-body diameter and tracking the number of highly branched MBP+ cells (with three or more processes) (Monnerie et al., 2017). Statistics were performed using GraphPad Prism 6 Software (La Jolla, Calif.). One-way ANOVA with Tukey's posthoc test for multiple comparisons was used to generate p-values, and data are presented as mean SEM (with α≤0.05).
Primary OPC cultures were used as a convenient cell-based assay to characterize the proliferation and/or differentiation effects of the new IndCl analogues and to select those most suitable for more extensive studies to be done in comparison with the parental ligand, IndCl. 48 hours after plating OPCs, one of seven IndCl analogues (FIG. 1A) was added to differentiating media at a concentration of 10 nM (De Angelis et al., 2005; Saijo et al., 2011). OPCs were allowed to differentiate for 3 days in the presence of IndCl or analogues, at which point they were fixed, immunostained for OPC/OL markers, and quantified. […] The total number of cells in culture was not altered by any treatment (FIGS. 1B and 1D).

| Compound | number of MOG+ OLs (primary OPCs/OLs) | β/α Ratio (ERβ) | RBA ERβ (ERβ) [%] | RBA ERα (ERα) [%] | %MBP+/DAPI [1] | MBP+/DAPI ratio (OPC differentiation) [1] | number of MBP+ OLs (differentiated OLs) ([1]; 10 nM, 3 days in differentiating media, vs vehicle-treated cells) | branched OLs / complex branching cells ([1]; 10 nM, vs vehicle-treated cells) | number of total cells (DAPI) (primary OPCs/OLs; FIG. 12C) |
| --- | --- | --- | --- | --- | --- | --- | --- | --- | --- |
| Cc1cc(O)ccc1-n1nc2ccc(O)cc2c1Br [IndBr-o-Me, 3-bromo-2-(4-hydroxy-2-methylphenyl)-2H-indazol-5-ol] | significant increase | 9.8 | 11.99 | 1.22 |  |  |  |  |  |
| Oc1ccc(-n2nc3ccc(O)c(Cl)c3c2Cl)c(Cl)c1 [IndCl-o-Cl-4-Cl, 2-(2-chloro-4-hydroxyphenyl)-3,4-dichloro-2H-indazol-5-ol] |  | 0.46 | 0.73 | 0.33 | * |  |  |  |  |
| Oc1cc(F)c(-n2nc3ccc(O)c(Cl)c3c2Cl)c(F)c1 [IndCl-o-F2-4-Cl, 3,4-dichloro-2-(2,6-difluoro-4-hydroxyphenyl)-2H-indazol-5-ol] |  | 3.6 | 0.28 | 0.076 |  | greatest increase |  |  |  |
| Oc1ccc(-n2nc3ccc(O)cc3c2Cl)c(I)c1 [IndCl-o-I, 2-(2-iodo-4-hydroxyphenyl)-3-chloro-2H-indazol-5-ol] |  | 15.7 | 5.38 | 0.34 |  |  | significant increase; also recorded: significantly increased | increase in the percentage of branched OLs |  |
| Oc1ccc(-n2nc3ccc(O)cc3c2Cl)c(O)c1 [IndCl-o-OH, 4-(3-chloro-5-hydroxy-2H-indazol-2-yl)benzene-1,3-diol] |  | 48.2 | 2.99 | 0.062 |  | greatest increase |  |  |  |
| Oc1ccc(-n2nc3ccc(O)cc3c2F)c(Br)c1 [IndF-o-Br, 2-(2-bromo-4-hydroxyphenyl)-3-fluoro-2H-indazol-5-ol] | significant increase | 3.3 | 1.22 | 0.37 |  |  |  |  | significant increase |
| Cc1cc(O)ccc1-n1nc2ccc(O)cc2c1F [IndF-o-Me, 3-fluoro-2-(4-hydroxy-2-methylphenyl)-2H-indazol-5-ol] | significant increase | 3.4 | 0.37 | 0.11 | * * * * * |  |  |  |  |
